The values that follow come from publication PMC10449848, “Structural basis of lipid-droplet localization of 17-beta-hydroxysteroid dehydrogenase 13” (Nature Communications, 2023).

Assay [1] addresses T1, dog mutant HSD17B13 (G177E/V178G/T205A/I293V) (Canis lupus familiaris, UniProt A0A8C0PP93, G177E/I293V/T205A/V178G).
T1 construct: HSD17B13 (AA1-300, XP_038300006.1); made in house; host or cells: Sf9 (baculovirus)
T1 sequence (A0A8C0PP93 1-300 G177E/V178G/T205A/I293V): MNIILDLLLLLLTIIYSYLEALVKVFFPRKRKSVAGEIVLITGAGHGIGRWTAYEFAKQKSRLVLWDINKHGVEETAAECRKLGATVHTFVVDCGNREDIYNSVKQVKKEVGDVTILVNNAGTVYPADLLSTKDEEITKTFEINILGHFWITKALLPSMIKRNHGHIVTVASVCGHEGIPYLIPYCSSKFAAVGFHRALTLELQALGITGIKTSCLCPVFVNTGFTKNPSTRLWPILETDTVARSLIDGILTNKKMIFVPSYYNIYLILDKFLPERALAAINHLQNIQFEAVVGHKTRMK
The experiment in a line: Thermal shift assay (static light scattering, Tagg), dog mutant HSD17B13. In kind it is binding. The settings on record: Fig. 6d, 500 μM NAD+. The source says:
To understand ligand binding, we tested several approaches such as surface plasmon resonance and isothermal calorimetry. […] We next turned to thermal shift assays (TSA) for comparing ligand binding affinities. TSA measures the changes in the thermal denaturation temperature of a protein under different conditions such as the presence compound, changes in buffer conditions, or sequence mutations. There are various readouts including intrinsic fluorescence or light scattering signals. We chose the static light scattering methods to detect the temperatures at which our proteins start to aggregate (Tagg), which are more suitable for membrane proteins that require detergent micelles for stability.
TSA studies were run on the UNit instrument (Unchained Labs, CA, USA). […] The data was processed using the UNcle software (Unchained Labs, CA, USA), and temperatures at which the protein started aggregation were recorded as Tagg.

In another assay the target is T2, human HSD17B11 (Homo sapiens, UniProt Q8NBQ5).
T2 construct: human HSD17B11 (residues 2-300, NP_057329.3); 10x His (N); TEV protease site (N); made in house; host or cells: Sf9 (baculovirus)
T2 sequence (Q8NBQ5 2-300): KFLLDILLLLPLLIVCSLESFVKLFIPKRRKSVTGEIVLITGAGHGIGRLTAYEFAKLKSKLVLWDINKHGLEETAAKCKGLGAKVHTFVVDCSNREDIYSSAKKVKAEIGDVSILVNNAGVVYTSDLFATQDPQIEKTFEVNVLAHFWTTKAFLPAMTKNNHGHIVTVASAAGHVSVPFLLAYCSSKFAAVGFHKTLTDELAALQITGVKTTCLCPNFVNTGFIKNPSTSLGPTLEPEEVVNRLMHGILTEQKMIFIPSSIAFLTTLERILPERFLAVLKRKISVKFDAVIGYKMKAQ
In words: Thermal shift assay (static light scattering, Tagg), human HSD17B11. In kind it is binding. The settings on record: Fig. 6d, 500 μM NAD+. The source says: Because of the low enzymatic activities of dog wild-type HSD17B13 (Fig. 6a) and HSD17B11 with β-estradiol, it was difficult to measure compound inhibition of these proteins in a biochemical assay and we instead utilized direct binding methods to compare compounds interaction with different proteins. To understand ligand binding, we tested several approaches such as surface plasmon resonance and isothermal calorimetry. Like many membrane/detergent-associated proteins, however, these methods were not amenable for HSD17B13. We next turned to thermal shift assays (TSA) for comparing ligand binding affinities. TSA measures the changes in the thermal denaturation temperature of a protein under different conditions such as the presence compound, changes in buffer conditions, or sequence mutations. There are various readouts including intrinsic fluorescence or light scattering signals. We chose the static light scattering methods to detect the temperatures at which our proteins start to aggregate (Tagg), which are more suitable for membrane proteins that require detergent micelles for stability. Given that in theory[51] and in practice Tagg continues to increase with concentration of ligands far above their IC50s, we used high cofactor and inhibitor concentrations in the TSA experiments to maximize the ligand binding signal.
TSA studies were run on the UNit instrument (Unchained Labs, CA, USA). Experiments were run in either 25 mM sodium phosphate pH 7, 150 mM NaCl, 10% glycerol, 1 mM TCEP, 0.05% DDM, + different cofactors (NAD^+, NADH, NADP, NADPH; MilliporeSigma) or 25 mM HEPES pH 7.2, 300 mM NaCl, 0.5 mM TCEP, 0.05% DDM, 10% glycerol, ±500 µM NAD^+, and ±100 µM compound 1 (from 2 mM DMSO stock) or DMSO or 50 mM Hepes pH 7.5, 300 mM NaCl, 0.5 mM TCEP, 0.05% DDM, 500 µM NAD^+, ± 50 µM compounds (from 2 mM stock) or DMSO. Protein aggregation was measured by static light scattering at 266 and 473 nm with a 1 °C/sec ramp rate from 20-80 °C. The data was processed using the UNcle software (Unchained Labs, CA, USA), and temperatures at which the protein started aggregation were recorded as Tagg. Reported Tagg and analysis were based on measurements at 266 nm unless otherwise indicated. The protein concentration used was 10.4 μM.

“And” between values parts separate entries of the source, which are not always exact repeats. Equal entries are not always repeated.

For the compound `O=C(NC[C@]1(O)CC[C@H](COc2ccccc2F)CC1)c1ccc(O)c(F)c1` [Compound 1], the “binding in TSA” value in assay [1] was “bound compound 1 strongly”. The Tagg in assay [1] (50 µM compound) is 46.8 ± 2.2 °C; at human HSD17B11 (50 µM compound) it was 37.65 °C and 35.79 °C and 38.54 °C and 39 °C and 39.99 °C and 38.79 °C and 39.64 °C and 38.95 °C. For the same compound, on human HSD17B11, the “effect on protein stability in TSA” value was “neither 1 nor 2 showed an effect on protein stability”.
